{"source": "patent US9107837B2", "about": "“Sustained release formulation of naltrexone” (Orexigen Therapeutics, Inc., priority 2006, dated 2015)", "origin": "cited, not measured here", "settings": "open label, approximately 570 individuals with alcoholism"}
{"smiles": "O=C1CC[C@@]2(O)[C@H]3Cc4ccc(O)c5c4[C@@]2(CCN3CC2CC2)[C@H]1O5", "note": "[naltrexone, 17-(cyclopropylmethyl)-4,5α-epoxy-3,14-dihydroxymorphinan-6-one]", "values": [{"measurement": "New-onset adverse reaction: anxiety", "result": 2, "unit": "%"}, {"measurement": "New-onset adverse reaction: dizziness", "result": 4, "unit": "%"}, {"measurement": "New-onset adverse reaction: fatigue", "result": 4, "unit": "%"}, {"measurement": "New-onset adverse reaction: headache", "result": 7, "unit": "%"}, {"measurement": "New-onset adverse reaction: insomnia", "result": 3, "unit": "%"}, {"measurement": "New-onset adverse reaction: nausea", "result": 10, "unit": "%"}, {"measurement": "New-onset adverse reaction: nervousness", "result": 4, "unit": "%"}, {"measurement": "New-onset adverse reaction: somnolence", "result": 2, "unit": "%"}, {"measurement": "New-onset adverse reaction: vomiting", "result": 3, "unit": "%"}]}
